Assay results published in patent US20260285850A1, “SUBSTITUTED OXAZOLIDINONES AND IMIDAZOLINONES AS HERBICIDES” (FMC CORPORATION, priority 2023, published 2026).

Key:
Format in all cases: in vivo
[1] = system: ryegrass, Italian (italian ryegrass, Lolium multiflorum); test: Test A preemergence soil spray, visual injury rating 0-100; settings: 10 days, 0 = no effect, 100 = complete control
How it was run: (§1)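 Scale 0–100 (no effect to complete control), visual, versus untreated controls, read 10 days after application. Application: preemergence directed spray onto seeded loam–sand soil, or postemergence to young plants; formulation in non-phytotoxic solvent with surfactant.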

[2] = system: wheat (Triticum aestivum); test: as above; settings: 10 days, 0 = no effect, 100 = complete control
How it was run: as §1

[3] = system: green foxtail (Setaria viridis); test: as above; settings: 10 days, 0 = no effect, 100 = complete control
How it was run: as §1

[4] = system: barnyardgrass (Echinochloa crus-galli); test: as above; settings: 10 days, 0 = no effect, 100 = complete control
How it was run: as §1

kochia (Bassia scoparia) [5] = test: as above; settings: 10 days, 0 = no effect, 100 = complete control
How it was run: as §1

[6] = system: palmer (palmer amaranth, palmer pigweed, Amaranthus palmeri); test: as above; settings: 10 days, 0 = no effect, 100 = complete control
How it was run: as §1

[7] = system: oat, wild (wild oat, Avena fatua); test: as above; settings: 10 days, 0 = no effect, 100 = complete control
How it was run: as §1

[8] = system: blackgrass (Alopecurus myosuroides); test: as above; settings: 10 days, 0 = no effect, 100 = complete control
How it was run: as §1

soybean (Glycine max) [9] = test: as above; settings: 10 days, 0 = no effect, 100 = complete control
How it was run: as §1

[10] = system: ragweed (common ragweed, Ambrosia artemisiifolia); test: as above; settings: 10 days, 0 = no effect, 100 = complete control
How it was run: as §1

corn (Zea mays) [11] = test: as above; settings: 10 days, 0 = no effect, 100 = complete control
How it was run: as §1

[12] = system: ryegrass, Italian (italian ryegrass, Lolium multiflorum); test: Test A postemergence application, visual injury rating 0-100; settings: Postemergence, 10 days, 0 is no effect, 100 is complete control
How it was run: as §1

[13] = system: galium (catchweed bedstraw, Galium aparine); test: as above; settings: Postemergence, 10 days, 0 is no effect, 100 is complete control
How it was run: as §1

[14] = system: wheat (Triticum aestivum); test: as above; settings: Postemergence, 10 days, 0 is no effect, 100 is complete control
How it was run: as §1

[15] = system: green foxtail (Setaria viridis); test: as above; settings: Postemergence, 10 days, 0 is no effect, 100 is complete control
How it was run: as §1

[16] = system: barnyardgrass (Echinochloa crus-galli); test: as above; settings: Postemergence, 10 days, 0 is no effect, 100 is complete control
How it was run: as §1

kochia (Bassia scoparia) [17] = test: as above; settings: Postemergence, 10 days, 0 is no effect, 100 is complete control
How it was run: as §1

[18] = system: palmer (palmer amaranth, palmer pigweed, Amaranthus palmeri); test: as above; settings: Postemergence, 10 days, 0 is no effect, 100 is complete control
How it was run: as §1

[19] = system: oat, wild (wild oat, Avena fatua); test: as above; settings: Postemergence, 10 days, 0 is no effect, 100 is complete control
How it was run: as §1

[20] = system: blackgrass (Alopecurus myosuroides); test: as above; settings: Postemergence, 10 days, 0 is no effect, 100 is complete control
How it was run: as §1

[21] = system: horseweed (Erigeron canadensis); test: as above; settings: Postemergence, 10 days, 0 is no effect, 100 is complete control
How it was run: as §1

soybean (Glycine max) [22] = test: as above; settings: Postemergence, 10 days, 0 is no effect, 100 is complete control
How it was run: as §1

[23] = system: ragweed (common ragweed, Ambrosia artemisiifolia); test: as above; settings: Postemergence, 10 days, 0 is no effect, 100 is complete control
How it was run: as §1

corn (Zea mays) [24] = test: as above; settings: Postemergence, 10 days, 0 is no effect, 100 is complete control
How it was run: as §1

rice (Oryza sativa) = test: Test B flooded paddy test, visual plant response rating 0-100; settings: 250 g ai/ha, Flood, applied to paddy water, evaluated after 13 days
How it was run: (§2)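 Visual scores versus untreated controls were recorded 13 days after treatment of greenhouse-held plants. At the 2-leaf stage, pots were flooded 3 cm above the soil surface and compounds added straight to the water.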

[25] = system: ducksalad (Heteranthera limosa); test: as above; settings: 250 g ai/ha, Flood, applied to paddy water, evaluated after 13 days
How it was run: as §2

[26] = system: barnyardgrass (Echinochloa crusgalli); test: as above; settings: 250 g ai/ha, Flood, applied to paddy water, evaluated after 13 days
How it was run: as §2

[27] = system: sedge, umbrella (small-flower umbrella sedge, Cyperus difformis); test: as above; settings: 250 g ai/ha, Flood, applied to paddy water, evaluated after 13 days
How it was run: as §2

CC(C)OC(=O)C1C=CC(NC(=O)C2(C)CN(c3cc(Cl)cc(Cl)c3)C(=O)O2)C1 (stereo not shown) [Compound 43]
Ryegrass, Italian plant response rating (0 to 100 scale) ([1]; 125 g ai/ha): 90
Ryegrass, Italian plant response rating (0 to 100 scale) ([1]; 500 g ai/ha): 90
Wheat plant response rating (0 to 100 scale) ([2]; 125 g ai/ha): 90
Wheat plant response rating (0 to 100 scale) ([2]; 500 g ai/ha): 90
Foxtail, Green plant response rating (0 to 100 scale) ([3]; 125 g ai/ha): 90
Foxtail, Green plant response rating (0 to 100 scale) ([3]; 500 g ai/ha): 100
Barnyardgrass plant response rating (0 to 100 scale) ([4]; 125 g ai/ha): 100
Barnyardgrass plant response rating (0 to 100 scale) ([4]; 500 g ai/ha): 100
Kochia plant response rating (0 to 100 scale) (kochia (Bassia scoparia) [5]; 125 g ai/ha): 80
Kochia plant response rating (0 to 100 scale) (kochia (Bassia scoparia) [5]; 500 g ai/ha): 90
Amaranth, Palmer plant response rating (0 to 100 scale) ([6]; 125 g ai/ha): 100
Amaranth, Palmer plant response rating (0 to 100 scale) ([6]; 500 g ai/ha): 100
Oat, Wild plant response rating (0 to 100 scale) ([7]; 125 g ai/ha): 90
Oat, Wild plant response rating (0 to 100 scale) ([7]; 500 g ai/ha): 90
Blackgrass plant response rating (0 to 100 scale) ([8]; 125 g ai/ha): 90
Blackgrass plant response rating (0 to 100 scale) ([8]; 500 g ai/ha): 100
Soybean plant response rating (0 to 100 scale) (soybean (Glycine max) [9]; 125 g ai/ha): 40
Soybean plant response rating (0 to 100 scale) (soybean (Glycine max) [9]; 500 g ai/ha): 60
Ragweed plant response rating (0 to 100 scale) ([10]; 125 g ai/ha): 30
Ragweed plant response rating (0 to 100 scale) ([10]; 500 g ai/ha): 80
Corn plant response rating (0 to 100 scale) (corn (Zea mays) [11]; 125 g ai/ha): 80
Corn plant response rating (0 to 100 scale) (corn (Zea mays) [11]; 500 g ai/ha): 90
Ryegrass, Italian plant response rating (0 to 100 scale) ([12]; 125 g ai/ha): 90
Ryegrass, Italian plant response rating (0 to 100 scale) ([12]; 500 g ai/ha): 90
Galium plant response rating (0 to 100 scale) ([13]; 125 g ai/ha): 70
Galium plant response rating (0 to 100 scale) ([13]; 500 g ai/ha): 70
Wheat plant response rating (0 to 100 scale) ([14]; 125 g ai/ha): 90
Wheat plant response rating (0 to 100 scale) ([14]; 500 g ai/ha): 90
Foxtail, Green plant response rating (0 to 100 scale) ([15]; 125 g ai/ha): 90
Foxtail, Green plant response rating (0 to 100 scale) ([15]; 500 g ai/ha): 90
Barnyardgrass plant response rating (0 to 100 scale) ([16]; 125 g ai/ha): 100
Barnyardgrass plant response rating (0 to 100 scale) ([16]; 500 g ai/ha): 100
Kochia plant response rating (0 to 100 scale) (kochia (Bassia scoparia) [17]; 125 g ai/ha): 80
Kochia plant response rating (0 to 100 scale) (kochia (Bassia scoparia) [17]; 500 g ai/ha): 80
Amaranth, Palmer / Pigweed, Palmer plant response rating (0 to 100 scale) ([18]; 125 g ai/ha): 100
Amaranth, Palmer / Pigweed, Palmer plant response rating (0 to 100 scale) ([18]; 500 g ai/ha): 100
Oat, Wild plant response rating (0 to 100 scale) ([19]; 125 g ai/ha): 90
Oat, Wild plant response rating (0 to 100 scale) ([19]; 500 g ai/ha): 90
Blackgrass plant response rating (0 to 100 scale) ([20]; 125 g ai/ha): 100
Blackgrass plant response rating (0 to 100 scale) ([20]; 500 g ai/ha): 100
Horseweed plant response rating (0 to 100 scale) ([21]; 125 g ai/ha): 60
Horseweed plant response rating (0 to 100 scale) ([21]; 500 g ai/ha): 80
Soybean plant response rating (0 to 100 scale) (soybean (Glycine max) [22]; 125 g ai/ha): 80
Soybean plant response rating (0 to 100 scale) (soybean (Glycine max) [22]; 500 g ai/ha): 80
Ragweed plant response rating (0 to 100 scale) ([23]; 125 g ai/ha): 60
Ragweed plant response rating (0 to 100 scale) ([23]; 500 g ai/ha): 80
Corn plant response rating (0 to 100 scale) (corn (Zea mays) [24]; 125 g ai/ha): 100
Corn plant response rating (0 to 100 scale) (corn (Zea mays) [24]; 500 g ai/ha): 100
Plant response rating, Rice (0 to 100 scale, 0 is no effect and 100 is complete control) (rice (Oryza sativa)): 20
Plant response rating, Ducksalad (0 to 100 scale, 0 is no effect and 100 is complete control) [25]: 90
Plant response rating, Barnyardgrass (0 to 100 scale, 0 is no effect and 100 is complete control) [26]: 85
Plant response rating, Sedge, Umbrella (0 to 100 scale, 0 is no effect and 100 is complete control) [27]: 95
